Data as given in patent publication US20240254119A1 (THIRD HARMONIC BIO, INC., priority 2022, published 2024).
pIC50: −log10 of the molar value.

Experiments:
[1] = target: T1, wtKIT (Homo sapiens, UniProt P10721); assay: Caliper biochemical assay, wtKIT; details: Table 6, read-out: KIT Biochemical IC50 avg
T1 construct: 1888289AM in the reaction mixtures
Method in brief: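 Enzyme (5.0 nM wtKIT), 1 μM FAM-labelled peptide, 400 μM ATP and 10 mM MnCl2 in HEPES pH 7.5 with 1% DMSO, incubated 3 h at 25° C. EDTA quench; substrate and phosphoproduct separated by microfluidic electrophoresis and quantified by fluorescence.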

[2] = target: T2, CSF-1R (Homo sapiens, UniProt P07333); assay: Caliper biochemical assay, CSF-1R; details: Table 6
T2 construct: purchased Invitrogen PV3249 (lot 662393N)
Method in brief: (§1)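 Kinase, FAM-labelled peptide substrate, ATP and Mn^2+ incubated with compound for 3 h at 25° C, then quenched with EDTA buffer. Substrate and phosphorylated product separated by microfluidic electrophoresis and quantified by fluorescence intensity; no-enzyme wells define 100% inhibition.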

[3] = target: T3, PDGFRα (Homo sapiens, UniProt P16234); assay: Caliper biochemical assay, PDGFRα; details: Table 6
T3 construct: purchased Millipore 14-467 (lot 26321_ACTI)
Method in brief: as §1

[4] = target: T4, BCRP (BCRP-MDCKII monolayer) (Homo sapiens, UniProt Q9UNQ0); assay: MDCKII-BCRP bidirectional transport assay; format: in vitro ADME; details: for MDCK-BCRP: Papp A-B: apical to basolateral
T4 construct: host or cells: MDCKII (canine kidney) cells
T4 sequence (Q9UNQ0 1-655): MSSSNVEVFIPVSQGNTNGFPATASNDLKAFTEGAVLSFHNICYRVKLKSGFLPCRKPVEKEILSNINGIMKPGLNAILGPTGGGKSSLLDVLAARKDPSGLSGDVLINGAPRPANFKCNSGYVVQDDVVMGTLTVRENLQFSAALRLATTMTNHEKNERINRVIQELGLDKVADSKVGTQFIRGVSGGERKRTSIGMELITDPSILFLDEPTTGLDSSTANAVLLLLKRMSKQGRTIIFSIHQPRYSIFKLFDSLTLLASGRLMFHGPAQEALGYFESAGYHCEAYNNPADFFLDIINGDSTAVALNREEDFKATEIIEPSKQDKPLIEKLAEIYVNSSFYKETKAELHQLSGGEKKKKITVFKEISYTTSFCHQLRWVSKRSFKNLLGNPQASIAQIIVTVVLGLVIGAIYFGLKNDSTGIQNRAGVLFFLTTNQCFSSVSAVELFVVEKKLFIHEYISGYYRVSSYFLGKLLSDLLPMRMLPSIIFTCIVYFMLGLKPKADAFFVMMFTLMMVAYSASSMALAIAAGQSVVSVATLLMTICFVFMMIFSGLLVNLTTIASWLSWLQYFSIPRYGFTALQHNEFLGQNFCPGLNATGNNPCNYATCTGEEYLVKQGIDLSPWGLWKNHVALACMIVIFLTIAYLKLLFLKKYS
Method in brief: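 Bidirectional A→B and B→A transport across PreadyPort BCRP-MDCKII monolayers (days 12–15) was run in duplicate for 120 min at 37° C, 5% CO2 after a 15 min preincubation. Compound levels were measured by LC-MS/MS. Papp and recovery were calculated, with efflux ratio indicating transporter engagement.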

[5] = Kinetic solubility assay; format: physicochemical; details: kinetic solubility, 50 mM PB (pH 7.4), shaken 24 hours at RT
Method in brief: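 Test compounds from 10 mM DMSO stock were diluted in 50 mM phosphate buffer, pH 7.4, and shaken for 24 h at RT. After PTFE filtration and centrifugation, filtrate concentration was quantified by UPLC-UV/HPLC-UV against a standard curve.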

T1 sequence (P10721 26-976): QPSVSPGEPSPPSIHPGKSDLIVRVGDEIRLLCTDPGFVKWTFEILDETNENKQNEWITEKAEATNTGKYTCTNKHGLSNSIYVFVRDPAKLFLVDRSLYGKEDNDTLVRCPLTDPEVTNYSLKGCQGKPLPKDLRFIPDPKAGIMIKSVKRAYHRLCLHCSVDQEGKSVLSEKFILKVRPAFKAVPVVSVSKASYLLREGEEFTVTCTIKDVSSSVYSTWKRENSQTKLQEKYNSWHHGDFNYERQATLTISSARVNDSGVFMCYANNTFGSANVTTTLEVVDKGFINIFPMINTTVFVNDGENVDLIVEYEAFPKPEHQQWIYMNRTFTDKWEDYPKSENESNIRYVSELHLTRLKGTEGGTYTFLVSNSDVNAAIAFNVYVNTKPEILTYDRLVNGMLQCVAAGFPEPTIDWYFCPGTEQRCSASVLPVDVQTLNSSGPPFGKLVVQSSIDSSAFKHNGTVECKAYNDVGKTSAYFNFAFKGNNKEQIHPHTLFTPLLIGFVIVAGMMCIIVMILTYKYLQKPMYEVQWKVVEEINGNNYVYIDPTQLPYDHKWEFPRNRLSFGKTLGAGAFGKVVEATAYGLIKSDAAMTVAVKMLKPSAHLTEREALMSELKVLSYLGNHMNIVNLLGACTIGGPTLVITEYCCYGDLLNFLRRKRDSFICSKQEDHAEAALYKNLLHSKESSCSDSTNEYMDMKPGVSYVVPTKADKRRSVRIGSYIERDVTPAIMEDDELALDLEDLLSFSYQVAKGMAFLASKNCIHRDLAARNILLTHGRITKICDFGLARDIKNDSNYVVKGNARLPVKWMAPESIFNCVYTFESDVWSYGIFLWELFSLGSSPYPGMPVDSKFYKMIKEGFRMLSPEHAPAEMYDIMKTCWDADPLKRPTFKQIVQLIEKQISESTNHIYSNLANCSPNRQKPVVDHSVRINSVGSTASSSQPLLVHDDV
T3 sequence (P16234 24-1089): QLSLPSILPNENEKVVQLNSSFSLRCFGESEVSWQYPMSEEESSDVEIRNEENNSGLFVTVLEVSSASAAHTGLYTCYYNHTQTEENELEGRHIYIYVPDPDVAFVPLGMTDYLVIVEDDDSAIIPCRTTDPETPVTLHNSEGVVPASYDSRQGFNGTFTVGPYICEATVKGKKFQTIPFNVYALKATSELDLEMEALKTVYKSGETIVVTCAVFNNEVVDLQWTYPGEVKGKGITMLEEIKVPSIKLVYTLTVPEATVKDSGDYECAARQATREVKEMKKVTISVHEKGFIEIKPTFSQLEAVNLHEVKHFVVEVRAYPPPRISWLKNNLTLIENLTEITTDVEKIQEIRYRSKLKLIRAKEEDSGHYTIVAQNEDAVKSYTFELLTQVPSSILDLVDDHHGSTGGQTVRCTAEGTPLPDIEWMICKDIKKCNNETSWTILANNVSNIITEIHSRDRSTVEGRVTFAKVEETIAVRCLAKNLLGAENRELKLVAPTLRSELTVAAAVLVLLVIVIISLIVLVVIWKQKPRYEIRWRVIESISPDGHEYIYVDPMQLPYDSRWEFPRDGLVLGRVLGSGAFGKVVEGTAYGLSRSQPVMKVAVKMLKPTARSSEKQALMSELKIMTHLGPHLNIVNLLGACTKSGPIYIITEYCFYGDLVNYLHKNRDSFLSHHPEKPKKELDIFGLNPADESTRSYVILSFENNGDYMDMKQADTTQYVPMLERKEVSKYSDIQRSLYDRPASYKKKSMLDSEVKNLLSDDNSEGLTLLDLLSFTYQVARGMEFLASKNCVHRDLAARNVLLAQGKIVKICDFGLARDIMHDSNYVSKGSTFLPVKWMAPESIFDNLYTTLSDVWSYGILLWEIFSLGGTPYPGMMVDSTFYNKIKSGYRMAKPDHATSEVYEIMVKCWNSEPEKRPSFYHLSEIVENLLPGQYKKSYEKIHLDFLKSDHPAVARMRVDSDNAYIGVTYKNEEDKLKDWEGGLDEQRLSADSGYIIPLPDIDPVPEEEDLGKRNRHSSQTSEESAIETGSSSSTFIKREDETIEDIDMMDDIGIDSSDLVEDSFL
T2 sequence (P07333 20-972): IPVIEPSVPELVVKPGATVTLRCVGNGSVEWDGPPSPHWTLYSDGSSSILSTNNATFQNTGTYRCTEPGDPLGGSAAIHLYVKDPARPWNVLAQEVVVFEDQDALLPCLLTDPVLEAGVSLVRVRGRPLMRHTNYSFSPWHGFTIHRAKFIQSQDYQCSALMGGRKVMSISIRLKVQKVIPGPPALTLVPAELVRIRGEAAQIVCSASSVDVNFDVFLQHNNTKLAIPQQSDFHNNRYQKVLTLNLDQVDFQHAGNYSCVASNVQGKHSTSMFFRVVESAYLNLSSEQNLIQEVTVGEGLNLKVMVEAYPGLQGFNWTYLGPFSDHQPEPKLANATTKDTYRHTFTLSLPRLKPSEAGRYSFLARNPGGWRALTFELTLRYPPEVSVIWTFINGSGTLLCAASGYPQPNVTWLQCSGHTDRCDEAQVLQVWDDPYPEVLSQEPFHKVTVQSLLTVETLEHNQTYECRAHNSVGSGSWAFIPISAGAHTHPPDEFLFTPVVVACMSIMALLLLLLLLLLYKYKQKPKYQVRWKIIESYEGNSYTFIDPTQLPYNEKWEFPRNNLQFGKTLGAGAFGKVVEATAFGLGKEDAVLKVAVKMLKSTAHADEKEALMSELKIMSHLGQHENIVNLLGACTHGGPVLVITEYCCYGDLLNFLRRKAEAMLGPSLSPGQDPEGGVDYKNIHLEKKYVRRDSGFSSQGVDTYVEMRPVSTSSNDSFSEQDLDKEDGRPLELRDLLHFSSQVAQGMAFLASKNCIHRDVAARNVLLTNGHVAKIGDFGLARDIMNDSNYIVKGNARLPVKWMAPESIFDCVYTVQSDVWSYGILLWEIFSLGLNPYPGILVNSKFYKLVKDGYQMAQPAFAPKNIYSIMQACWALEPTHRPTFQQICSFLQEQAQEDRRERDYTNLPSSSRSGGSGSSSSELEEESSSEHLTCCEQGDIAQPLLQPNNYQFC

| Compound | pIC50 [1] | pIC50 [2] | pIC50 [3] | MDCK-BCRP: Efflux Ratio [4] | MDCK-BCRP: Papp A-B [4] | Solubility (μM) [5] |
| --- | --- | --- | --- | --- | --- | --- |
| Cc1ccc(-c2noc(C3(C)CC(F)(F)CN3)n2)cc1NC(=O)c1cnc2ccccn12 (racemic) [Compound I-328] | ≥ 7.30 | 6.30 to 7.30 | 5.30 to 6.30 | 4.55 | 6.06 10^−6 cm/s | *** (a solubility greater than 2 μM and less than or equal to 10 μM) |
| Cc1ccc(-c2noc(C3CC(OCCF)C3)n2)cc1NC(=O)c1cnc2ccccn12 (stereo not drawn) [Compound I-369] | ≥ 7.30 | 6.30 to 7.30 | 5.30 to 6.30 | 1.62 | 8.93 10^−6 cm/s | ** (a solubility greater than 10 μM and less than or equal to 50 μM) |
| Cc1nc(-c2ccc(C)c(NC(=O)c3cnc4cc(C(F)F)ccn34)c2)no1 [Compound I-134] | ≥ 7.30 | 5.30 to 6.30 | 5.30 to 6.30 | 2.12 | 7.85 10^−6 cm/s | **** (a solubility less than or equal to 2 μM) |
| Cc1ccc(-c2noc([C@H](C)O)n2)cc1NC(=O)c1cnc2ccccn12 [Compound I-271] | ≥ 7.30 | 6.30 to 7.30 | 5.30 to 6.30 | 29.6 | 1.25 10^−6 cm/s | * (a solubility greater than 50 μM) |
| Cc1cc(C)cc(Nc2ccc3ncc(C(=O)Nc4cc(-c5noc([C@H]6C[C@@H]6F)n5)ccc4C)n3c2)c1 [Compound I-299] | ≥ 7.30 | ≥ 7.30 | 6.30 to 7.30 | 13.7 | 0.01 10^−6 cm/s | **** (a solubility less than or equal to 2 μM) |
| Cc1ccc(-c2noc([C@H]3C[C@@H]3F)n2)cc1NC(=O)c1cnc2ccc(F)cn12 [Compound I-288] | ≥ 7.30 | 6.30 to 7.30 | 5.30 to 6.30 | 1.01 | 7.81 10^−6 cm/s | **** (a solubility less than or equal to 2 μM) |
| Cc1ccc(-c2noc(CC3CC3(F)F)n2)cc1NC(=O)c1cnc2ccccn12 (stereo not drawn) [Compound I-125] | ≥ 7.30 | ≥ 7.30 | 6.30 to 7.30 | 1.6 | 9.07 10^−6 cm/s | **** (a solubility less than or equal to 2 μM) |
| Cc1ccc(-c2noc(C3(N)CC4(CC(F)(F)C4)C3)n2)cc1NC(=O)c1cnc2ccccn12 [Compound I-307] | ≥ 7.30 | ≥ 7.30 | 5.30 to 6.30 | 3.77 | 7.39 10^−6 cm/s | ** (a solubility greater than 10 μM and less than or equal to 50 μM) |
| Cc1ccc(-c2noc(C3CC(C)(F)C3)n2)cc1NC(=O)c1cnc2ccccn12 (stereo not drawn) [Compound I-387] | ≥ 7.30 | ≥ 7.30 | 6.30 to 7.30 | 0.82 | 13.8 10^−6 cm/s | *** (a solubility greater than 2 μM and less than or equal to 10 μM) |
| Cc1ccc(-c2noc(C3CCC3F)n2)cc1NC(=O)c1cnc2ccccn12 (racemic) [Compound I-376] | ≥ 7.30 | ≥ 7.30 | 6.30 to 7.30 | 1.02 | 6.24 10^−6 cm/s | **** (a solubility less than or equal to 2 μM) |
| Cc1ccc(-c2noc(C3COC3)n2)cc1NC(=O)c1cnc2ccccn12 [Compound I-138] | ≥ 7.30 | ≥ 7.30 | 5.30 to 6.30 | 5.11 | 10.4 10^−6 cm/s | **** (a solubility less than or equal to 2 μM) |
| Cc1ccc(-c2noc(C(C)NS(C)(=O)=O)n2)cc1NC(=O)c1cnc2ccccn12 (single isomer, unassigned) [Compound I-238] | ≥ 7.30 | 6.30 to 7.30 | 4.52 to 5.30 | 22.7 | 0.92 10^−6 cm/s | * (a solubility greater than 50 μM) |
| Cc1ccc(-c2noc(C3CCC(F)C3)n2)cc1NC(=O)c1cnc2ccccn12 (racemic) [Compound I-319] | ≥ 7.30 | ≥ 7.30 | 6.30 to 7.30 | 1.02 | 13.1 10^−6 cm/s | *** (a solubility greater than 2 μM and less than or equal to 10 μM) |
| COC(=O)N1CC(c2nc(-c3ccc(Cl)c(NC(=O)c4cnc5ccccn45)c3)no2)C1 [Compound I-339] | ≥ 7.30 | ≥ 7.30 | 5.30 to 6.30 | 1.75 | 13 10^−6 cm/s | **** (a solubility less than or equal to 2 μM) |
| COCCS(=O)(=O)N1CC(c2nc(-c3ccc(C)c(NC(=O)c4cnc5ccccn45)c3)no2)C1 [Compound I-235] | ≥ 7.30 | 6.30 to 7.30 | 4.52 to 5.30 | 6.86 | 3.11 10^−6 cm/s | *** (a solubility greater than 2 μM and less than or equal to 10 μM) |
